Test results from patent US7776873B2, “Method for treating damage to gastric mucosa” (Yuhan Corporation, priority 2005, dated 2010).

Tested on: NF-kB (nuclear factor-kappa B)
Experiment: DNA binding activity of NF-kB after H. pylori infection (EMSA)
Type: cell-based, human
Details: FIG. 5
Description: The DNA binding activity of NF-kB (nuclear factor-kappa B), a redox-sensitive transcription factor known to be associated with H. pylori infection was evaluated using EMSA. Rebamipide (50 μM), known to have cytoprotective properties, was used as a control drug, and revaprazan (25 μM) was used as a test drug. The human gastric epithelial (AGS, KCLB 21739) cells were seeded in culture dishes at 2×10^6 cells/100 mm^2 and cultured in RPMI 1640 (Gibco BRL, Grand Island, N.Y., U.S.A.), supplemented with 100 units/mL penicillin, 100 ug/mL streptomycin, and 10% FBS (Fetal Bovine Serum). […] The culture media were removed and the cells were twice washed with PBS (137 mM NaCl, 2.7 mM KCl, 10 mM Na2HPO4, and 2 mM KH2PO4). For inoculation, H. pylori (ATCC 43504) cultures were resuspended in PBS and cocultured with AGS cells at a final concentration of 5×10^8 CFU/ml at 37° C. for one hour. The nuclear fractions for EMSA were prepared using the NE-PER Nuclear and the Cytoplasmic Extraction Kit (Pierce, Rockford, Ill., U.S.A.). Sequences of double-stranded oligonucleotides used for EMSA of NF-kB were as follows; [NT], and the oligonucleotides were labeled with a Biotin 3' End DNA Labeling Kit (Pierce, Rockford, Ill., U.S.A.). The EMSA was performed with a Light Shift Chemiluminescent EMSA Kit (Pierce, Rockford, Ill., U.S.A.).

Cc1nc(Nc2ccc(F)cc2)nc(N2CCc3ccccc3C2C)c1C (centres unmarked) [revaprazan, 5,6-dimethyl-2-(4-fluorophenylamino)-4-(1-methyl-1,2,3,4-tetrahydroisoquinolin-2-yl)pyrimidine] was tested. Which “NF-kB activity (DNA binding)” value (AGS cells, 25 uM pretreatment for 16 hours, then H. pylori one hour) did it give?
Its value is “significantly inhibited”.

What about the “cytoprotective effect (NF-kB inhibition) compared with rebamipide” value (revaprazan 25 uM vs rebamipide 50 uM) of the same molecule?
Its value is “equal to or greater than rebamipide”.
